Source: patent publication US20170226507A1, “COORDINATE CONTROL OF PATHOGENIC SIGNALING BY THE MIR-130/301 FAMILY IN PULMONARY HYPERTENSION AND FIBROPROLIFERATIVE DISEASES” (The Brigham and Women's Hospital, Inc., priority 2014, published 2017)
Entries after “also recorded” stand apart in the source; their conditions may differ.

Columns and labels:
[1] = test system: hypoxia-induced PH in mice; test: Hypoxia-induced PH in mice: BAPN (prevention, rescue) or GW3965 (prevention); format: in vivo, mouse
Description: Finally, we wanted to determine if ApoE activity and/or LOX-dependent vascular stiffening were essential for ECM stiffening and PH development by miR-130/301. To assess the importance of ApoE activity, we attempted to prevent PH in mice via treatment with daily dietary ingestion of the liver-X nuclear hormone receptor (LXR) agonist GW3965, a known pharmacologic inducer of ApoE (Pencheva et al., 2014), simultaneously with hypoxia (FIGS. 62A-62H and 68A-H). Alternatively, experiments were designed to either prevent or reverse hypoxia-induced PH in mice via serial treatment with a pharmacologic inhibitor of LOX (Levental et al., 2009), β-aminopropionitrile BAPN, administered either simultaneously with hypoxia exposure (“prevention”) or after disease development (“reversal”) (FIGS. 62A-62H and 68A-H). In all cases of GW3965 or BAPN treatment, collagen crosslinking (FIG. 62D, 62H, FIG. 68) was inhibited, leading to decreased indices of PH, as reflected by RVSP (FIG. 62A, 62E), right ventricular remodeling (RV/LV+S ratio; FIG. 62B, 62F) and pulmonary arteriolar muscularization (FIG. 62C, 62G). GW3965 or BAPN treatment also reversed Pparγ and Lrp8 down-regulation (FIGS. 68A-68H) as well as reduced YAP nuclear localization (FIG. 62D, 62H) and YAP activation, as reflected by decreased Ctgf (FIGS. 68A-68H). Thus, considering the convergent data regarding pharmacologic manipulation of miR-130/301, APOE, and LOX, we can conclude that the YAP-TAZ-miR-130/301 circuit and its downstream network of targets act as master regulators of ECM remodeling in PH and represent a new set of targets for tailored molecular therapy in this disease.
To determine the effects of the LXR agonist GW3965 (Sigma-Aldrich) and consequent APOE induction on PH development, as previously described (Pencheva et al., 2014), mice were exposed to normobaric hypoxia and simultaneously assigned to control chow or chow supplemented with GW3965 (Research Diets, Inc.) at doses of 100 mg of drug per kilogram of mouse per day (based on average daily intake of […] of chow).
(§1) Picrosirius Red stain was achieved through the use of 5 μm paraffin sections stained with 0.1% Picrosirius Red (Direct Red80, Sigma-Aldrich) and counterstained with Weigert's hematoxylin to reveal fibrillar collagen. The sections were then serially imaged using with an analyzer and polarizer oriented parallel and orthogonal to each other. Microscope conditions (lamp brightness, condenser opening, objective, zoom, exposure time, and gain parameters) were constant throughout the imaging of all samples. A minimal threshold was set on appropriate control sections for each experiment in which only the light passing through the orthogonally-oriented polarizers representing fibrous structures (i.e., excluding residual light from the black background) was included. The threshold was maintained for all images across all conditions within each experiment. The area of the transferred regions that was covered by the thresholded light was calculated and at least 10 sections/vessel per condition were averaged together (Image J software).
This protocol was adapted from a previously published protocol (Hu et al.). Mouse lung was weighed, minced, and incubated in 0.5 M acetic acid at 4° C. After overnight digestion, the acetic acid-soluble and insoluble fractions were isolated by centrifugation. The soluble fraction was stored at −80° C., while the insoluble fraction was digested by overnight incubation in 6M hydrochloric acid at 85° C. Concentrations of soluble and insoluble (gelatinous) collagen fractions were determined using a Sircol Soluble Collagen Assay Kit (Biocolor) with a colorimetric reaction (measured at 550 nm) and a provided collagen reference standard curve.

[2] = test system: pulmonary tissue and pulmonary vasculature of mice; test: Forced expression of miR-130a in mouse lung (SU5416, intrapharyngeal mimic) with or without rosiglitazone or BAPN
Experimental: In the presence of SU5416 (days of injection are highlighted in red) but in the absence of hypoxia, intrapharyngeal injection of wildtype mice was performed serially 4 times at 1 week intervals with 1 nmol of miR-NC or 1 nmol of miR-130a (days of administration are in black). During this period, mice were treated daily by oral gavage with 20 mg/kg of rosiglitazone or vehicle. At day 25, echocardiography and right heart catheterization was performed followed by euthanasia and blood/tissue sampling.
Eight-week-old mice (C57Bl6) were injected with SU5416 weekly (20 mg/kg/dose; Sigma-Aldrich), accompanied by 4 intrapharyngeal injections (once by week) of 1 nmol of miR-control (pre-miR-NC) or miR-130a (pre-miR-130a) mixed in 100 uL PBS solution containing 5% Lipofectamine 2000 (Life Technologies). Three days after the last injection, right heart catheterization was performed as previously described (9), followed by harvest of lung tissue for RNA extraction or paraffin embedding, as described above. Rosiglitazone (Cayman Chemicals) was dissolved in 0.25% carboxymethyl cellulose medium viscosity aqueous solution. This rosiglitazone solution versus vehicle control was delivered daily (20 mg/kg/day) by oral gavage to mice for 3 weeks.
After physiological measurements, blood was extracted by cardiac puncture for future analyses (hematocrit, plasma extraction). By direct right ventricular puncture, the pulmonary vessels were gently flushed with 1 cc of saline to remove the majority of blood cells, prior to harvesting cardiopulmonary tissue. The heart was removed, followed by dissection and weighing of the right ventricle (RV) and of the left ventricle+septum (LV+S). Organs were then harvested for histological preparation or flash frozen in liquid N2 for subsequent homogenization and extraction of RNA and/or protein. To further process lung tissue specifically, prior to excision, lungs were flushed with PBS at constant low pressure (˜10 mmHg) via right ventricular cannulation, followed by tracheal inflation of the left lung with 10% neutral-buffered formalin (Sigma-Aldrich) at a pressure of −20 cm H2O. After excision and 16 hours of fixation in 10% neutral-buffered formalin at 25° C., lung tissues were paraffin-embedded via an ethanol-xylene dehydration series, before being sliced into 5 μm sections (Hypercenter XP System and Embedding Center, Shandon).
Lung sections (5 μm) were deparaffinized and high temperature antigen retrieval was performed followed by blocking in TBS/BSA 5%, 10% goat serum and exposure to primary antibody and biotinylated secondary antibody (Vectastain ABC kit, Vector Labs). In most cases, color development was achieved by adding streptavidin-biotinylated alkaline phosphatase complex (Vector Labs) followed by Vector Red alkaline phosphatase substrate solution (Vector Labs). Levamisole was added to block endogenous alkaline phosphatase activity (Vector Labs). Pictures were obtained using an Olympus Bx51 microscope (40× objective). Small pulmonary vessels (<100 μm diameter) present in a given tissue section (>10 vessels per section) that were not associated with bronchial airways were selected for analysis (N>5 animals per group). Intensity of staining was quantified using ImageJ software (NIH). Degree of pulmonary arteriolar muscularization was assessed in paraffin-embedded lung sections stained for α-SMA by calculation of the proportion of fully and partially muscularized peripheral (<100 μm diameter) pulmonary arterioles to total peripheral pulmonary arterioles, as previously described (29). Medial thickness was also measured in α-SMA stained vessels (<100 μm diameter) using ImageJ software (NIH) and expressed as arbitrary units. All measurements were performed blinded to condition.

PAAFs [3] = test: PAAFs in soft or stiff matrix: fibrotic gene expression, immunoblot, collagen secretion; format: cell-based, human
Experimental: Cell Culture and Reagents: Primary human pulmonary arterial adventitial fibroblast cells (PAAFs) were purchased and propagated in FGM cell culture media (Lonza). Experiments were performed at passages 3 to 6. Primary human pulmonary fibroblast cells (PFs) were purchased and propagated in FGM cell culture media (Lonza). Primary human pulmonary arterial endothelial cells (PAECs) were purchased and propagated in EGM-2 cell culture media (Lonza). Experiments were performed at passages 3 to 6. Primary human pulmonary arterial smooth muscle cells (PASMCs) were purchased and propagated in SmGM-2 cell culture media (Lonza). Experiments were performed at passages 3 to 9. HEK293T cells (American Type Culture Collection) were used and cultivated in DMEM containing 10% fetal bovine serum (FBS). Cells were propagated in coated collagen plastic (50 ug/mL) at 37° C. in a humidified 5% CO2 atmosphere. Collagen-coated hydrogel were purchased.
3D cell culture: Protocol was adapted from previously published protocol (Aragona M et al, 2013 Cell). Cells were embedded in a mixture of Growth Factor Reduced Matrigel (BD Biosciences) and Collagen-I (BD Biosciencres). Collagen-I solution was neutralized on ice with 0.1M NaOH in PBS and adjusted with 0.1N HCl to bring the pH of the solution to 7.5. The Collagen-I solution was then mixed on ice with Matrigel to obtain a final concentration of 1.2 mg/ml (soft matrices) or 3 mg/ml (stiff matrices). Cells were trypsinized, counted, resuspended in growth medium; then, 1 volume of cells was mixed with 1 volume of the ECM mix. 6-well plated were precoated with 1 ml of cellfree 50% medium/50% ECM, and left in the incubator until gelled; then, cells were seeded in drop on top of the pregelled ECM. After gelling, wells were supplemented with normal growth medium, which was changed every 2 days during the experiments.
Oligonucleotides and Transfection: Pre-miRNA oligonucleotides (pre-miR-130a, negative control pre-miR-NC1 and premiR-NC2) and custom designed tiny LNA oligonucleotides (tiny-130: 5′-[…]-3′ (SEQ ID NO: 52), and tiny-NC 5′-[…]-3′ (SEQ ID NO: 54)) were purchased from Life Technologies/Ambion and Exiqon, respectively. siRNAs for PPARγ and OCT4/POU5F1 were purchased from Santa Cruz Biotechnology. siRNA for TIMP2 was purchased from Life Technologies. On Target Plus siRNAs for YAP1, TAZ (WWTR1), LRP8 and scrambled control were purchased from ThermoScientific/Dhermacon. PAAF, PF, PAEC and PASMC were plated in collagen-coated dish (50 ug/mL) and transfected 24 h later at 70-80% confluence using pre-miRNA (5 nM), tiny-LNA (20 nM) or siRNA (25 nM) and Lipofectamine 2000 reagent (Life Technologies), according to the manufacturers' instructions. 8 hours after transfection cells were trypsinized and re-plated in the different hydrogel/3D-matrix.
Primary human pulmonary arterial adventitial fibroblast cells (PAAFs) were purchased (ScienCell Research Laboratories) and grown in FGM cell culture media (Lonza). Experiments were performed at passages 3 to 6. Primary human pulmonary arterial endothelial cells (PAECs) were grown in EGM-2 cell culture media (Lonza), and experiments were performed at passages 3 to 6. Primary human pulmonary arterial smooth muscle cells (PASMCs) were cultured in SmGM-2 cell culture media (Lonza), and experiments were performed at passages 3 to 9. HEK293T cells (American Type Culture Collection) were cultivated in DMEM containing 10% fetal bovine serum (FBS). […]

PAAFs [4] = test: ECM remodeling experiment (naïve PAAFs plated on remodeled ECM); format: cell-based, human
Experimental: After the different treatment cells were fixed with PBS/PFA 4% for 10 min and permeabilized with PBS/Triton 100×0.1% for 10 min. Then cells were incubated with anti-YAP1 (#4912; 1/100; Cell signaling) at 4° C. overnight. Secondary antibodies coupled with Alexa-594 (Life Technologies) were used at 1:500. Nuclei were counterstained with DAPI (Sigma).
Following treatment, PAAFs were plated atop soft matrices (see below) in normal growth medium supplemented with 0.5% FBS. After three days, 10 ug/mL of puromycin was added to the growth medium for 48 hours to detach the cells from the matrix. Matrices were washed 3 times (PBS). Naïve PAAFs were then plated on top of these matrices supplemented with normal growth medium 0.5% FBS or harvested for assessment of collagen crosslinking (Picrosirius Red stain). Sixteen hours later, cells were harvested for immunofluorescence experiments or RNA extraction.
as §1

[5] = rosiglitazone or BAPN on top of miR-130a

| Compound | perivascular collagen crosslinking ([1]; Picrosirius Red) | Ctgf, collagen isoforms, and Lox in lung ([1]; RT-qPCR) | whole lung collagen content and crosslinked collagen ([1]; Sircol assay) | arteriolar muscularization ([1]; hypoxic mice) | right ventricular hypertrophy (Fulton index, RV/LV+S) ([1]; hypoxic mice) | RVSP ([1]; hypoxic mice, BAPN prevention and rescue, GW3965 100 mg/kg/day in chow) | hypoxia mediated decreases of Lrp8 and Pparγ ([1]; in situ staining) | hypoxia-mediated increases of α-SMA and YAP ([1]; in situ staining) | miR-130a-mediated changes in collagen, α-SMA, YAP staining and perivascular collagen crosslinking ([2]; BAPN 30 mg/kg/day, Picrosirius Red and in situ staining) | YAP activation and downstream PH manifestations ([2]; BAPN in miR-130-exposed mice) | Ctgf, collagen isoforms and Lox expression in lung ([2]; RT-qPCR, BAPN on top of miR-130a) | right ventricular systolic pressure (RVSP) ([2]; SU5416 mice, miR-130a 1 nmol x4, rosiglitazone 20 mg/kg daily oral or BAPN 30 mg/kg/day on top of miR-130a) | total (soluble) collagen and crosslinked (insoluble) collagen in whole lung ([2]; Sircol / biochemical analysis, BAPN on top of miR-130a) | percentage of muscularized small pulmonary arterioles [2, 5] | right ventricular remodeling, RV/(LV+S) mass ratio [2, 5] | collagen content of conditioned media (collagen secretion) (PAAFs [3]; PAAFs) | miR-130a-induced up-regulation of collagen, CTGF, and LOX (PAAFs [3]; PAAFs exposed to exogenous ApoE) | collagen crosslinking of remodeled ECM (PAAFs [4]; Picrosirius Red) | collagen, LOX, CTGF, and POU5F1/OCT4 in naïve cells plated on remodeled ECM (PAAFs [4]; RT-qPCR) | miR-130/301 in naïve cells plated on remodeled ECM (PAAFs [4]; RT-qPCR) |
| --- | --- | --- | --- | --- | --- | --- | --- | --- | --- | --- | --- | --- | --- | --- | --- | --- | --- | --- | --- | --- |
| N#CCCN [BAPN, β-aminopropionitrile] | inhibited; also recorded: decreased | blunted | normalized by BAPN rescue treatment, and kept at baseline by preventative BAPN treatment; also recorded: nearly normalized by BAPN rescue treatment and largely maintained at baseline by BAPN prevention treatment | decreased; also recorded: both prevented and reversed | decreased; also recorded: both prevented and reversed | decreased; also recorded: both prevented and reversed | reversed; also recorded: either prevented or rescued | reduced; also recorded: blunted | decrease; also recorded: blunted | reversed | temper; also recorded: blunted | lessened | reversed; also recorded: decreased | lessened | lessened |  |  |  |  |  |
| ApoE: Recombinant ApoE (PeproTech) used at 5 μM in growth media |  |  |  |  |  |  |  |  |  |  |  |  |  |  |  | disrupted; also recorded: reversed | resistant | reversed | negligible alterations | reversed |
